This note sets out measurements from patent US4661505A, “Leukotriene antagonists” (Eli Lilly and Company, priority 1982, dated 1987).

What all share (type): cell-based
Experiment [1] relates to SRS-A evoked ileal contractions. The experiment in a line: Antagonism of crude SRS-A-evoked contraction of isolated guinea pig ileum (single concentration). The following applies: Cavia porcellus, 5 min, 5 minute exposure, pyrilamine 1×10^-6 M, read-out: Percent Inhibition of SRS-A evoked ileal contractions; for inhibition at 3 µM: 3 × 10^-6 M. As for the experimental part:
(§1) Male, Hartley guinea pigs weighing 200-450 grams were killed by decapitation. A section of terminal ileum was removed, the lumen cleaned, and the tissue divided into 2.5 cm. segments. The ilea were mounted in 10 ml. tissue baths containing Krebs-bicarbonate solution of the following composition in mmoles/liter: KCl, 4.6; CaCl2.2H2 O, 1.2; KH2 PO4, 1.2; MgSO4.7H2 O, 1.2; NaCl, 118.2; NaHCO3, 24.8 and dextrose, 10.0. The bath fluid was maintained at 37° C. and aerated with 95 percent oxygen and 5 percent CO2. In addition, the buffer contained 1×10^-6 M atropine to reduce ileal spontaneous activity. In studies with crude SRS-A, 1×10^-6M pyrilamine was used to mitigate the actions of histamine present along with the biologically active leukotrienes. Isometric measurements were made with a Grass FTO3C force-displacement transducer and recorded on a Grass polygraph as change in grams of force. A passive force of 0.5 g. was applied to the tissues. After an appropriate equilibration period, single submaximal control responses to either SRS-A or pure LTD4 were obtained. Following a 5 minute exposure of the ileum to an experimental drug, the control concentration of SRS-A or LTD4 was added to the tissue bath. The response of the ileum to SRS-A or LTD4 in the presence of the drug was compared to the response in the absence of the drug.
(§2) *Compounds marked with an asterisk were tested using crude SRSA as the
(§3) ileumcontracting agent; all other compounds were tested using pure

The target of experiment [2] is T1, LTD4 evoked ileal contractions (Cavia porcellus, UniProt Q2NNR5).
T1 construct: A section of terminal ileum was removed, the lumen cleaned, and the tissue divided into 2.5 cm. segments; from tissue; host or cells: terminal ileum of male Hartley guinea pigs
T1 sequence (Q2NNR5 1-340): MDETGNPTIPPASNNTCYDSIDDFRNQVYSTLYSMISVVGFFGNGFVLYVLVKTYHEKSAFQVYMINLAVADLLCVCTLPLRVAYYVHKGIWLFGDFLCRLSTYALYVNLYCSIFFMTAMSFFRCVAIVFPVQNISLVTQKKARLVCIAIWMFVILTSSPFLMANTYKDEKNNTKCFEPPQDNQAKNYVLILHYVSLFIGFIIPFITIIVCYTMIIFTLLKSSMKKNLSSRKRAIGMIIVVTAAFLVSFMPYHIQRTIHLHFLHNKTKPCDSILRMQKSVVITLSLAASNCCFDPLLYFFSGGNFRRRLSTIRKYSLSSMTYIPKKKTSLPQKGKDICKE
The experiment in a line: LTD4 antagonism, cumulative concentration-response curves in guinea pig ileum and trachea (pA2). The following applies: 30 minute incubation with antagonist, Furchgott method. The procedure: For some of the drugs in this series a more detailed analysis of LTD4 antagonism was made. In these experiments, cumulative concentration-response curves were obtained to LTD4 in guinea pig ileum and trachea. This was followed by a 30 minute incubation with various concentrations of the experimental drug. The concentration response curve to LTD4 was then repeated in the presence of the antagonist. Only one concentration of antagonist was used on a single tissue. KB values were calculated by the method of Furchgott [Ann. N.Y. Acad. Sci., 139, 553 (1967)]using the following equation. [formula] Dose ratio refers to the concentration of agonist required to elicit 50 percent of the maximal response (ED50) in the presence of the antagonist divided by the ED50 in the absence of the antagonist. Calculations were performed with the aid of a computer and a digital plotter.

Experiment [3] has as its target T1, LTD4 evoked ileal contractions. The experiment in a line: Antagonism of LTD4-evoked contraction of isolated guinea pig ileum (single concentration). Particulars: pure LTD4, 5 minute exposure, read-out: Percent Inhibition of LTD4 evoked ileal contractions; for inhibition at 10 µM: 1 × 10^-5 M; for inhibition at 1 µM: 1 × 10^-6 M. As for the experimental part: as §1, §2, §3

What is called inhibition is the change of the read-out against control, counted positive when it falls. As usually defined, the Kb is the affinity of an antagonist, worked out from how it opposes an agonist. Higher therefore signals a less potent antagonist.

For the molecule `CCCc1c(OC(CCCCC(=O)O)c2ccc(-c3ccccc3)cc2)ccc(C(C)=O)c1O` (centres unmarked) [Example 17, 6-(4-Acetyl-3-hydroxy-2-propylphenoxy)-6-(4-biphenyl)hexanoic acid], the inhibition at 10 µM in experiment [1] (1 × 10^-5 M) was determined as 44%.
For the molecule `CC(=O)c1ccc(OC(CCCCC(=O)O)c2ccccc2)cc1O` (centres unmarked) [Example 20, 6-(4-Acetyl-3-hydroxyphenoxy)-6-phenyl-hexanoic acid], in experiment [1], the inhibition at 3 µM amounted to 20%.
Take `CC(=O)c1ccc(OCCCCCC(=O)O)cc1O` [Example 25, 6-(4-Acetyl-3-hydroxyphenoxy)hexanoic acid]: the inhibition at 3 µM in experiment [1] stood at 11%.
For `CCCc1c(OCCCCC(=O)O)ccc(C(C)=O)c1O` [Example 28, 5-(4-Acetyl-3-hydroxy-2-propylphenoxy)pentanoic acid], the inhibition at 3 µM in experiment [1] was determined as 61%. For the same molecule, the Kb in experiment [2] was 1580 nM.
Regarding `CCCc1c(OC(C)CCCCC(=O)O)ccc(C(C)=O)c1O` (centres unmarked) [Example 40, 6-(4-Acetyl-3-hydroxy-2-propylphenoxy)heptanoic acid], the inhibition at 10 µM in experiment [3] was 79%. Moreover, the inhibition at 3 µM in experiment [3] (3 × 10^-6 M) stood at 45%. The Kb in experiment [2] was 1580 nM.
As to `CCCc1c(OCCCCSc2nn[nH]n2)ccc(C(C)=O)c1O` [Example 57, 5-[4-(4-Acetyl-3-hydroxy-2-propylphenoxy)butanethio]-tetrazole], the inhibition at 1 µM in experiment [3] is 87%. Further, in experiment [2], the Kb was 100 nM.
The matching figures for `CCCc1c(OCCSc2nn[nH]n2)ccc(C(C)=O)c1O` [Example 58, 5-[2-(4-Acetyl-3-hydroxy-2-propylphenoxy)ethanethio]-tetrazole]: 47% and 1120 nM.
For `CCCc1c(OCCCSc2nn[nH]n2)ccc(C(C)=O)c1O` [Example 59, 5-[3-(4-Acetyl-3-hydroxy-2-propylphenoxy)propanethio]-tetrazole] the same measures were 95% and 31.6 nM.
On to `CCCc1c(OCCCCCSc2nn[nH]n2)ccc(C(C)=O)c1O` [Example 68, 5-[5-(4-Acetyl-3-hydroxy-2-propylphenoxy)pentanethio]-tetrazole], for which, in experiment [3], the inhibition at 10 µM was 100% and the inhibition at 1 µM turned out to be 82%. Moreover, the Kb in experiment [2] was 158 nM.
For the molecule `CCCc1c(OCCCCCCCCSc2nn[nH]n2)ccc(C(C)=O)c1O` [Example 73, 5-[8-(4-Acetyl-3-hydroxy-2-propylphenoxy)octanethio]-tetrazole], in experiment [3], the inhibition at 10 µM was found to be 100% and the inhibition at 1 µM came to 50%. This molecule showed a Kb in experiment [2] of 501 nM.
